# From US9815863B2, “Hydrogen bond forming fluoro ketolides for treating diseases” (priority 2010, dated 2017)
# Key:
# [1] = test system: E. coli ribosomes (23S rRNA); assay: RNA footprinting (ribosome chemical probing), wild-type E. coli ribosomes; format: binding; details: E. coli ribosomes, 100 μM antibiotic
# Description: (§1) Ribosome chemical probing. rRNA probing was done following standard protocols (Merryman, C., and H. F. Noller. 1998. Footprinting and modification-interference analysis of binding sites on RNA, p. 237-253. In C. W. J. Smith (ed.), RNA:Protein Interactions, A Practical Approach. Oxford University Press, Oxford), with minor modifications. Briefly, 200 nM ribosomes were incubated with 100 μM antibiotic in 50 μL of buffer B (80 mM HEPES-KOH [pH 7.8], 20 mM MgCl2, 100 mM NH4Cl, 1.5 mM dithiothreitol) for 10 min at 37° C., followed by 10 min at 20° C. Modifying reagents (dimethyl sulfate [DMS], kethoxal, or 1-cyclohexyl-3-(2-morpholinoethyl)carbodiimide metho p-toluene sulfonate [CMCT]) were added and the modification reaction was carried out for 10 min at 37° C. After quenching the reaction and ethanol precipitation, rRNA was extracted and the distribution of modified nucleotides was assessed by primer extension.
# (§2) Interactions of CEM-101 with wild-type E. coli and S. aureus ribosomes in solution. […] 1987. Chloramphenicol, erythromycin, carbomycin and vernamycin B protect overlapping sites in the peptidyl transferase region of 23S ribosomal RNA. Biochimie 69:879-884). Also included in this study was a C3-cladinose cousin of CEM-101, CEM-103, which lacks the C2-linked fluorine atom.
# E. coli 70S ribosomes = assay: Saturation (direct) binding of radiolabeled drug to E. coli ribosomes, spin-column
# Description: (§3) Ribosomes were prepared from E. coli, strain MRE 600, S. aureus strain ATCC 29212, or S. aureus strain N315 by standard protocols (Spedding™, G. 1990. Isolation and analysis of ribosomes from prokaryotes, eukaryotes, and organelles, p. 1-29. In G. Spedding (ed.), Ribosomes and protein synthesis, a practical approach. Oxford University Press, Oxford, United Kingdom; Adams, P. D., P. V. Afonine, G. Bunkoczi, V. B. Chen, I. W. Davis, N. Echols, J. J. Headd, L. W. Hung, G. J. Kapral, R. W. Grosse-Kunstleve, A. J. McCoy, N. W. Moriarty, R. Oeffner, R. J. Read, D. C. Richardson, J. S. Richardson, T. C. Terwilliger, and P. H. Zwart. 2010. PHENIX: a comprehensive Python-based system for macromolecular structure solution. Acta Crystallogr. D. Biol. Crystallogr. 66:213-221).
# (§4) Competition binding studies. […]
# (§5) Direct antibiotic binding experiments were done by incubating ribosomes at a 100 nM concentration with varying concentrations of radiolabeled drug in a total volume of 160 μL in buffer A (20 mM Tris-HCl [pH 7.5], 10 mM MgCl2, 150 mM NH4Cl, 6 mM 2-mercaptoethanol) at 37° C. for 15 min, then at 20° C. for 10 min. […] Radioactivity was measured in a scintillation counter and used to calculate the amount of the radiolabeled drug bound to ribosomes.
# [2] = test system: 2058-dimethylated ribosomes isolated from the S. aureus N315 strain; assay: RNA footprinting of A2058-dimethylated (Erm-modified) ribosomes from S. aureus N315; format: binding; details: S. aureus N315 ribosomes dimethylated at A2058, drugs at 100 μM
# Description: as §1
# Interaction of CEM-101 with S. aureus ribosomes dimethylated at A2058 by Erm-methyltransferase. Erm-methyltransferase modifies A2058 in 23S rRNA by consecutively adding two methyl groups to the exocyclic amino group of the adenine base. Such modification completely blocks binding of erythromycin and similar macrolides, whereas its effect on binding of ketolides is less clear (Douthwaite, S., L. H. Hansen, and P. Mauvais. 2000. Macrolide-ketolide inhibition of MLS-resistant ribosomes is improved by alternative drug interaction with domain R of 23S rRNA. Mol. Microbiol. 36:183-193; Liu, M., and S. Douthwaite. 2002. Activity of the ketolide telithromycin is refractory to Erm monomethylation of bacterial rRNA. Antimicrob. Agents Chemother. 46:1629-1633). Therefore, interaction of CEM-101 with the ribosomes isolated from a clinical S. aureus strain N315, which carries five chromosomal copies of constitutively expressed ermA gene present in the Tn554 transposon (Kuroda, M., T. Ohta, I. Uchiyama, T. Baba, H. Yuzawa, I. Kobayashi, L. Cui, A. Oguchi, K. Aoki, Y. Nagai, J. Lian, T. Ito, M. Kanamori, H. Matsumaru, A. Maruyama, H. Murakami, A. Hosoyama, Y. Mizutani-Ui, N. K. Takahashi, T. Sawano, R. Inoue, C. Kaito, K. Sekimizu, H. Hirakawa, S. Kuhara, S. Goto, J. Yabuzaki, M. Kanehisa, A. Yamashita, K. Oshima, K. Furuya, C. Yoshino, T. Shiba, M. Hattori, N. Ogasawara, H. Hayashi, and K. Hiramatsu. 2001. Whole genome sequencing of meticillin-resistant Staphylococcus aureacs. Lancet 357:1225-1240) was investigated.
# Footprinting analysis was used to test interactions of ketolides (CEM-101 and telithromycin) and cladinose-containing macrolides (CEM-103 and erythromycin) with the 2058-dimethylated ribosomes isolated from the S. aureus N315 strain. Ribosomes were incubated with the drugs (present at 100 μM concentration) and probed by DMS modification. Because dimethylated A2058 blocks progression of reverse transcriptase along the RNA template, a strong reverse transcriptase stop is observed at A2058 on the primer extension gel (Vester, B., and S. Douthwaite. 1994. Domain V of 23S rRNA contains all the structural elements necessary for recognition by the ErmE methyltransferase. J. Bacteriol. 176:6999-7004; Zhong, P., Z. Cao, R. Hammond, Y. Chen, J. Beyer, V. D. Shortridge, L. Y. Phan, S. Pratt, J. Capobianco, K. A. Reich, R. K. Flamm, Y. S. Or, and L. Katz. 1999. Induction of ribosome methylation in MLS-resistant Streptococcus pneumoniae by macrolides and ketolides. Microb. Drug Resist. 5:183-188). Therefore, it is impossible to use footprinting to evaluate interactions of macrolides with this position in the S. aureus N315 ribosomes. […]
# ribosomes = details: literature values for erythromycin binding; read-out: Kd, previously published; cited from earlier work
# S. aureus 70S ribosomes = assay: Saturation (direct) binding of radiolabeled drug to S. aureus wild-type ribosomes, spin-column
# Description: as §3, §4, §5
# [3] = test system: S. aureus ribosomes (23S rRNA); assay: RNA footprinting (ribosome chemical probing), wild-type S. aureus ribosomes; format: binding; details: S. aureus ribosomes, 100 μM antibiotic
# Description: as §1, §2
# [4] = test system: ribosomes isolated from the S. aureus N315 strain; assay: Binding of [14C]erythromycin to ribosomes from S. aureus N315; details: ribosomes from S. aureus N315, dimethylated at A2058
# Description: Competition binding studies. Binding of erythromycin to E. coli and S. aureus ribosomes and competition experiments were done by size-exclusion chromatography using Bio-Gel P30 spin columns as described in Xiong, L., Y. Korkhin, and A. S. Mankin. 2005. Binding site of the bridged macrolides in the Escherichia coli ribosome. Antimicrob. Agents Chemother. 49:281-288.
# Direct antibiotic binding experiments were done by incubating ribosomes at a 100 nM concentration with varying concentrations of radiolabeled drug in a total volume of 160 μL in buffer A (20 mM Tris-HCl [pH 7.5], 10 mM MgCl2, 150 mM NH4Cl, 6 mM 2-mercaptoethanol) at 37° C. for 15 min, then at 20° C. for 10 min. The reactions were loaded onto the spin columns and centrifuged in a swinging-bucket microcentrifuge rotor for 1 min at 1,000 g at room temperature. The flow-through solution was collected; 130 μL was mixed with 5 mL of the scintillation cocktail. Radioactivity was measured in a scintillation counter and used to calculate the amount of the radiolabeled drug bound to ribosomes.
# Interaction of CEM-101 with S. aureus ribosomes dimethylated at A2058 by Erm-methyltransferase. Erm-methyltransferase modifies A2058 in 23S rRNA by consecutively adding two methyl groups to the exocyclic amino group of the adenine base. […]
smiles,measurement,setting,value
CC[C@H]1OC(=O)[C@H](C)[C@@H](O[C@H]2C[C@@](C)(OC)[C@@H](O)[C@H](C)O2)[C@H](C)[C@@H](O[C@@H]2O[C@H](C)C[C@H](N(C)C)[C@H]2O)[C@](C)(O)C[C@@H](C)C(=O)[C@H](C)[C@@H](O)[C@]1(C)O [erythromycin],Protection of A752 from DMS modification,[1],fails to protect
same,Kd,E. coli 70S ribosomes,66 ± 11 nM
same,Protection of A2059 from DMS modification (binding to Erm-modified ribosome),[2],not
same,Protection of G2505 from kethoxal modification,[2],did not protect
same,Protection of U2609 from modification with CMCT,[2],did not protect
same,Kd,ribosomes,10 to 100 nM
same,Kd,S. aureus 70S ribosomes,11 ± 1 nM
same,Protection of A752 from DMS modification,[3],fails to protect
same,Binding to ribosomes,[4],lack of binding
